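Method: 48-hour compound exposure of cells in 96-well plates, five concentrations, linear interpolation of endpoints. The concentration for 50% growth inhibition is given as GI50. TGI marks complete inhibition of growth.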
Experiments:
Test in all cases: growth of human tumour cells (NCI), 48 h
HL-60(TB) leukemia = test system: HL-60(TB) leukemia
MCF7 breast = test system: MCF7 breast
MALME-3M melanoma = test system: MALME-3M melanoma
HCC-2998 colon = test system: HCC-2998 colon
PC-3 prostate = test system: PC-3 prostate
OVCAR-8 ovarian = test system: OVCAR-8 ovarian
SK-MEL-28 melanoma = test system: SK-MEL-28 melanoma
CCRF-CEM leukemia = test system: CCRF-CEM leukemia
SNB-75 CNS = test system: SNB-75 CNS
SK-MEL-2 melanoma = test system: SK-MEL-2 melanoma
MDA-MB-435 = test system: MDA-MB-435
UO-31 renal = test system: UO-31 renal
COLO 205 colon = test system: COLO 205 colon
HCT-116 colon = test system: HCT-116 colon
DU-145 prostate = test system: DU-145 prostate
K-562 leukemia = test system: K-562 leukemia
786-0 renal = test system: 786-0 renal
HOP-62 NSCLC = test system: HOP-62 NSCLC
SF-268 CNS = test system: SF-268 CNS
SN12C renal = test system: SN12C renal
BT-549 breast = test system: BT-549 breast
TK-10 renal = test system: TK-10 renal
CAKI-1 renal = test system: CAKI-1 renal
UACC-62 melanoma = test system: UACC-62 melanoma
A549 NSCLC = test system: A549 NSCLC
OVCAR-4 ovarian = test system: OVCAR-4 ovarian
U251 CNS = test system: U251 CNS
NCI-H226 lung = test system: NCI-H226 lung

COc1cc2c(cc1OC)C(C(CCCCCC(CCC(C)C)C1NCCc3cc(OC)c(OC)cc31)CCC(C)C)NCC2 (stereo unspecified)
GI50 (HL-60(TB) leukemia): 0.878 µM
TGI (HL-60(TB) leukemia): 2.55 µM
GI50 (MCF7 breast): 0.651 µM
TGI (MCF7 breast): 1.91 µM
GI50 (MALME-3M melanoma): 2.01 µM
TGI (MALME-3M melanoma): 4.03 µM
GI50 (HCC-2998 colon): 0.188 µM
TGI (HCC-2998 colon): 0.357 µM
GI50 (PC-3 prostate): 1.58 µM
TGI (PC-3 prostate): 3.12 µM
GI50 (OVCAR-8 ovarian): 1.01 µM
TGI (OVCAR-8 ovarian): 2.52 µM
GI50 (SK-MEL-28 melanoma): 1.85 µM
TGI (SK-MEL-28 melanoma): 3.28 µM
GI50 (CCRF-CEM leukemia): 0.489 µM
TGI (CCRF-CEM leukemia): 2.13 µM
GI50 (SNB-75 CNS): 1.62 µM
TGI (SNB-75 CNS): 3.05 µM
GI50 (SK-MEL-2 melanoma): 2.1 µM
TGI (SK-MEL-2 melanoma): 3.72 µM
GI50 (MDA-MB-435): 0.516 µM
TGI (MDA-MB-435): 2.25 µM
GI50 (UO-31 renal): 1.59 µM
TGI (UO-31 renal): 3.22 µM
GI50 (COLO 205 colon): 0.225 µM
TGI (COLO 205 colon): 0.464 µM
GI50 (HCT-116 colon): 0.199 µM
TGI (HCT-116 colon): 0.388 µM
GI50 (DU-145 prostate): 1.19 µM
TGI (DU-145 prostate): 2.55 µM
GI50 (K-562 leukemia): 0.201 µM
TGI (K-562 leukemia): 0.441 µM
GI50 (786-0 renal): 1.73 µM
TGI (786-0 renal): 3.46 µM
GI50 (HOP-62 NSCLC): 1.55 µM
TGI (HOP-62 NSCLC): 3.11 µM
GI50 (SF-268 CNS): 1.34 µM
TGI (SF-268 CNS): 2.79 µM
GI50 (SN12C renal): 1.44 µM
TGI (SN12C renal): 2.87 µM
GI50 (BT-549 breast): 1.72 µM
TGI (BT-549 breast): 3.12 µM
GI50 (TK-10 renal): 1.76 µM
TGI (TK-10 renal): 3.21 µM
GI50 (CAKI-1 renal): 1.55 µM
TGI (CAKI-1 renal): 3.19 µM
GI50 (UACC-62 melanoma): 1.59 µM
TGI (UACC-62 melanoma): 2.97 µM
GI50 (A549 NSCLC): 0.98 µM
TGI (A549 NSCLC): 2.44 µM
GI50 (OVCAR-4 ovarian): 1.54 µM
TGI (OVCAR-4 ovarian): 2.92 µM
GI50 (U251 CNS): 0.285 µM
TGI (U251 CNS): 0.979 µM
GI50 (NCI-H226 lung): 1.79 µM
TGI (NCI-H226 lung): 3.6 µM
